Measurements from patent publication US20240336565A1, “SOLID FORMS OF OSANETANT” (Acer Therapeutics, Inc., priority 2021, published 2024).
“Also recorded” adds a separate entry of the source.

Experiment: Salt screen: XRPD of isolated solids after drying at 40° C. and at 40° C./75% RH
Format: physicochemical
Details: for XRPD after drying at 40° C./75% RH: after 40° C. drying, dried at 40° C./75% RH for about 24 h, label = form after 40° C. drying; for XRPD after drying at 40° C.: isolated solids dried at 40° C. for about 24 h, label = wet form
Procedure: To approximately 20 mg of amorphous lyophilized osanetant was added 0.3 mL of solvent for liquid counterion experiments. 0.2 mL of solvent was employed for solid counterion experiments. […] To the stirring mixture was then added 1.05 mol eq. of the appropriate counterion. Where solid counterions were used, the vial which contained the counterion was washed in to the osanetant containing vial with 0.1 mL of the appropriate solvent. Additional solvent was added where necessary. The experiments were thermally cycled as follows: heated from 25 to 40° C. at a rate of 0.1° C./min; 1 h at 40° C.; Cool to 5° C. at a rate of 0.1° C.; 1 h at 5° C.; 40° C. at a rate of 0.1° C./min; […] The crystallization experiments were thermally cycled overnight, then slurries were isolated by centrifugation. XRPD analysis was carried out on any isolated solids or gums. The XRPD plate, and the isolated solids, were then dried at 40° C. for about 24 h, and XRPD analysis was repeated. The XRPD plate was then dried at 40° C./75% RH for about 24 h and XRPD analysis was again repeated. All other samples were allowed to evaporated at ambient temperature and pressure.

SMILES: CC(=O)N(C)C1(c2ccccc2)CCN(CCC[C@]2(c3ccc(Cl)c(Cl)c3)CCCN(C(=O)c3ccccc3)C2)CC1.O=C(O)C(O)C(O)C(=O)O [osanetant L-tartaric acid Form 1]
- XRPD after drying at 40° C./75% RH: crystallinity was lost
- XRPD after drying at 40° C.: no change

SMILES: CC(=O)N(C)C1(c2ccccc2)CCN(CCCC2(c3ccc(Cl)c(Cl)c3)CCCN(C(=O)c3ccccc3)C2)CC1.O=C(O)C(O)C(O)C(=O)O [osanetant L-tartaric acid Form 2]
- XRPD after drying at 40° C./75% RH: crystallinity was lost
- XRPD after drying at 40° C.: no change

SMILES: CC(=O)N(C)C1(c2ccccc2)CCN(CCC[C@]2(c3ccc(Cl)c(Cl)c3)CCCN(C(=O)c3ccccc3)C2)CC1.CC(=O)O [osanetant acetic acid Form 1, (R)-N-(1-(3-(1-benzoyl-3-(3,4-dichlorophenyl)piperidin-3-yl)propyl)-4-phenylpiperidin-4-yl)-N-methylacetamide acetic acid]
- XRPD after drying at 40° C.: changed form on drying at 40 °C to Pattern 2

SMILES: CC(=O)N(C)C1(c2ccccc2)CCN(CCC[C@]2(c3ccc(Cl)c(Cl)c3)CCCN(C(=O)c3ccccc3)C2)CC1.CC(=O)O [osanetant acetic acid Form 2, (R)-N-(1-(3-(1-benzoyl-3-(3,4-dichlorophenyl)piperidin-3-yl)propyl)-4-phenylpiperidin-4-yl)-N-methylacetamide acetic acid]
- XRPD after drying at 40° C./75% RH (acetic acid): retained; also recorded: stable

SMILES: CC(=O)N(C)C1(c2ccccc2)CCN(CCC[C@]2(c3ccc(Cl)c(Cl)c3)CCCN(C(=O)c3ccccc3)C2)CC1.O=S(=O)(O)c1ccccc1 [osanetant benzenesulfonic acid Form 2, (R)-N-(1-(3-(1-benzoyl-3-(3,4-dichlorophenyl)piperidin-3-yl)propyl)-4-phenylpiperidin-4-yl)-N-methylacetamide benzenesulfonic acid]
- XRPD after drying at 40° C./75% RH: converted to Pattern 1; also recorded: Form 1

SMILES: CC(=O)N(C)C1(c2ccccc2)CCN(CCC[C@]2(c3ccc(Cl)c(Cl)c3)CCCN(C(=O)c3ccccc3)C2)CC1.O=S(=O)(O)c1ccccc1 [osanetant benzenesulfonic acid Form 4, (R)-N-(1-(3-(1-benzoyl-3-(3,4-dichlorophenyl)piperidin-3-yl)propyl)-4-phenylpiperidin-4-yl)-N-methylacetamide benzenesulfonic acid]
- XRPD after drying at 40° C./75% RH: converted to Pattern 1; also recorded: Form 1**
- XRPD after drying at 40° C.: Form 4

SMILES: CC(=O)N(C)C1(c2ccccc2)CCN(CCC[C@]2(c3ccc(Cl)c(Cl)c3)CCCN(C(=O)c3ccccc3)C2)CC1.O=C(O)c1ccccc1 [osanetant benzoic acid Form 1, (R)-N-(1-(3-(1-benzoyl-3-(3,4-dichlorophenyl)piperidin-3-yl)propyl)-4-phenylpiperidin-4-yl)-N-methylacetamide benzoic acid]
- XRPD after drying at 40° C./75% RH: no change in form; also recorded: stable
- XRPD after drying at 40° C.: no change in form

SMILES: CC(=O)N(C)C1(c2ccccc2)CCN(CCC[C@]2(c3ccc(Cl)c(Cl)c3)CCCN(C(=O)c3ccccc3)C2)CC1.CCS(=O)(=O)O [osanetant ethanesulfonic acid Form 1, (R)-N-(1-(3-(1-benzoyl-3-(3,4-dichlorophenyl)piperidin-3-yl)propyl)-4-phenylpiperidin-4-yl)-N-methylacetamide ethanesulfonic acid]
- XRPD after drying at 40° C.: Form 2

SMILES: CC(=O)N(C)C1(c2ccccc2)CCN(CCC[C@]2(c3ccc(Cl)c(Cl)c3)CCCN(C(=O)c3ccccc3)C2)CC1.CCS(=O)(=O)O [osanetant ethanesulfonic acid Form 2, (R)-N-(1-(3-(1-benzoyl-3-(3,4-dichlorophenyl)piperidin-3-yl)propyl)-4-phenylpiperidin-4-yl)-N-methylacetamide ethanesulfonic acid]
- XRPD after drying at 40° C./75% RH: Amorphous

SMILES: CC(=O)N(C)C1(c2ccccc2)CCN(CCC[C@]2(c3ccc(Cl)c(Cl)c3)CCCN(C(=O)c3ccccc3)C2)CC1.O=C(O)/C=C/C(=O)O [osanetant fumaric acid Form 1]
- XRPD after drying at 40° C./75% RH: crystallinity was lost
- XRPD after drying at 40° C.: no change

SMILES: CC(=O)N(C)C1(c2ccccc2)CCN(CCC[C@]2(c3ccc(Cl)c(Cl)c3)CCCN(C(=O)c3ccccc3)C2)CC1.CS(=O)(=O)O [osanetant methanesulfonic acid Form 1, (R)-N-(1-(3-(1-benzoyl-3-(3,4-dichlorophenyl)piperidin-3-yl)propyl)-4-phenylpiperidin-4-yl)-N-methylacetamide methanesulfonic acid]
- XRPD after drying at 40° C./75% RH: Amorphous
- XRPD after drying at 40° C.: Form 1

SMILES: CC(=O)N(C)C1(c2ccccc2)CCN(CCC[C@]2(c3ccc(Cl)c(Cl)c3)CCCN(C(=O)c3ccccc3)C2)CC1.CS(=O)(=O)O [osanetant methanesulfonic acid Form 2, (R)-N-(1-(3-(1-benzoyl-3-(3,4-dichlorophenyl)piperidin-3-yl)propyl)-4-phenylpiperidin-4-yl)-N-methylacetamide methanesulfonic acid]
- XRPD after drying at 40° C./75% RH: Amorphous
- XRPD after drying at 40° C.: Form 2

SMILES: CC(=O)N(C)C1(c2ccccc2)CCN(CCC[C@]2(c3ccc(Cl)c(Cl)c3)CCCN(C(=O)c3ccccc3)C2)CC1.Cc1ccc(S(=O)(=O)O)cc1 [osanetant p-toluenesulfonic acid Form 2, (R)-N-(1-(3-(1-benzoyl-3-(3,4-dichlorophenyl)piperidin-3-yl)propyl)-4-phenylpiperidin-4-yl)-N-methylacetamide p-toluenesulfonic acid]
- XRPD after drying at 40° C./75% RH: converted to Pattern 1; also recorded: Form 1
- XRPD after drying at 40° C.: retained; also recorded: Form 2

SMILES: CC(=O)N(C)C1(c2ccccc2)CCN(CCC[C@]2(c3ccc(Cl)c(Cl)c3)CCCN(C(=O)c3ccccc3)C2)CC1.Cc1ccc(S(=O)(=O)O)cc1 [osanetant p-toluenesulfonic acid Form 3, (R)-N-(1-(3-(1-benzoyl-3-(3,4-dichlorophenyl)piperidin-3-yl)propyl)-4-phenylpiperidin-4-yl)-N-methylacetamide p-toluenesulfonic acid]
- XRPD after drying at 40° C.: converted to Pattern 4; also recorded: Form 4

SMILES: CC(=O)N(C)C1(c2ccccc2)CCN(CCC[C@]2(c3ccc(Cl)c(Cl)c3)CCCN(C(=O)c3ccccc3)C2)CC1.Cc1ccc(S(=O)(=O)O)cc1 [osanetant p-toluenesulfonic acid Form 4, (R)-N-(1-(3-(1-benzoyl-3-(3,4-dichlorophenyl)piperidin-3-yl)propyl)-4-phenylpiperidin-4-yl)-N-methylacetamide p-toluenesulfonic acid]
- XRPD after drying at 40° C./75% RH: lost crystallinity; also recorded: Amorphous

SMILES: CC(=O)N(C)C1(c2ccccc2)CCN(CCC[C@]2(c3ccc(Cl)c(Cl)c3)CCCN(C(=O)c3ccccc3)C2)CC1.O=P(O)(O)O [osanetant phosphoric acid Form 1, (R)-N-(1-(3-(1-benzoyl-3-(3,4-dichlorophenyl)piperidin-3-yl)propyl)-4-phenylpiperidin-4-yl)-N-methylacetamide phosphoric acid]
- XRPD after drying at 40° C./75% RH: converted to Pattern 4; also recorded: Form 4
- XRPD after drying at 40° C.: Form 1
